Consider six compounds from EP0345931A1 (SCHERING CORPORATION, priority 1988, dated 1989).

Each structure is given as a SMILES string. Like-named read-outs stand apart in the source and are kept apart here.

The test system of one assay is PAF-induced lethality. As to the kind of experiment: PAF-induced lethality in mice. It counts as in vivo, Swiss-Webster female CFW mice. The note with it: for effect on PAF-induced mortality: result in words; for ED50: Mus musculus, read-out: ED₅₀; for % Lethality: death recorded 1 hour after challenge.
Assay [1] has as its system ovalbumin-induced lethality (anaphylactic death). Briefly: Anaphylactic death in ovalbumin-sensitized mice. It counts as in vivo, Swiss-Weber female CFW mice. The note with it: for protection of sensitized animals from death: antihistamines given individually; for protection of sensitized animals from death / protection against allergic death (anaphylactic shock) / ovalbumin-induced lethality / protecting sensitized animals from death: result in words; for protection against allergic death (anaphylactic shock) / ovalbumin-induced lethality: ovalbumin sensitized mice; for protecting sensitized animals from death: i.p. at doses as high as 50 mg/kg (A) and 20 mg/kg (B). The procedure: Swiss-Weber female CFW mice (20-30 g) from Charles River were acclimatized for 7-14 days. Animals were sensitized by injecting intraperitoneally 0.5 ml of saline containing 1.6 mg of ovalbumin adsorbed to 100 mg of Al(OH)₃ gel. Ten to 15 days after sensitization, the animals, at least six per group, were injected intraveneously through the tail vein with 1.6 mg of ovalbumin in 0.5 ml of saline. One hundred percent of the sensitized animals died within 10-20 minutes. Injection of ovalbumin into normal mice caused no lethality. […] The compositions (given in dosages listed in the left-hand column of Table II below) were administered intraperitoneally either individually or in indicated combinations 30 minutes before challenge with albumin to sensitized mice. Death was recorded 1 hour after the challenge.

The next assay deals with PAF-acether. The note with it: BN 52021 2 mg/kg p.o. alone (non-active dose); cited from earlier work.
The test system of another assay is PAF-induced bronchospasm. As to the kind of experiment: PAF-induced bronchospasm in guinea pigs. Type of assay: in vivo. To be noted: Cavia porcellus.
Setting [2] is: compound 5 mg/kg i.p. 30 minutes before i.v. PAF (200 µg/kg).
The mark [3] stands for this setting: compound 10 mg/kg i.p. 30 minutes before i.v. PAF (200 µg/kg).

Procedure for PAF-induced lethality: Swiss-Webster female CFW mice (from Charles River), 5-10 per group, were injected through the tail vein with PAF in 0.5 ml of saline containing bovine serum albumin, and death was recorded.

In the case of `CN1CCC[C@@H]1CCO[C@](C)(c1ccccc1)c1ccc(Cl)cc1` [E, clemastine], in the assay with PAF-induced lethality, the “effect on PAF-induced mortality” value was “Neither chlorpheniramine, clemastine nor ketotifen affected PAF-induced mortality”. In addition, the “% Survival” value in assay [1] (E 0.2 mg/kg i.p. 30 minutes before ovalbumin challenge, pooled data) turned out to be 45%. For the same compound, in assay [1], the “protection of sensitized animals from death” value was “significant protection” and the “protection against allergic death (anaphylactic shock) / ovalbumin-induced lethality” value was “only partial protection”.

Take `C[C@@H]1C(=O)O[C@H]2[C@@H](O)[C@@]34[C@H]5C[C@@H](C(C)(C)C)[C@]36[C@@H](OC(=O)[C@@H]6O)O[C@@]4(C(=O)O5)[C@@]12O` [BN 52021, ginkgolide B]: the change of bronchospasm in the assay with PAF-acether was -10%.

On to `Cc1nnc2n1-c1sc(CCC(=O)N3CCOCC3)cc1C(c1ccccc1Cl)=NC2` [B, 4-(2-chlorophenyl)-9-methyl-6H-thieno[3,2-f][1,2,4]triazolo[4,3-a][1,4]diazepine-2-propionic acid morpholide], for which the ED50 was found to be 0.1 mg/kg with PAF-induced bronchospasm (po, PAF-induced bronchospasm, read-out: ED₅₀ (p.o.)) and 1.5 mg/kg with PAF-induced lethality. Moreover, the “% Lethality” value in the assay on PAF-induced lethality (compound 1 mg/kg i.p. 30 minutes before i.v. PAF (200 µg/kg)) is recorded as 84%; in the assay with PAF-induced lethality (compound 2 mg/kg i.p. 30 minutes before i.v. PAF (200 µg/kg)), 20%; in the assay with PAF-induced lethality (setting [2]) it was 16%; with PAF-induced lethality (setting [3]), 0%. The “% Survival” value in assay [1] (B 5 mg/kg i.p. 30 minutes before ovalbumin challenge, death recorded 1 hour after, pooled data from five experiments) stood at 0%. Moreover, in assay [1], the “protecting sensitized animals from death” value is given as “totally ineffective”.

Take `Cc1nnc2n1-c1ccc(Cl)cc1C(c1ccccc1)=NC2` [alprazolam, 8-chloro-1-methyl-6-phenyl-4H-3-triazolo[4,3-a][1,2]-benzodiazepine]: the ED50 in the assay with PAF-induced bronchospasm (iv, read-out: ED₅₀'s (i.v.)) was found to be 3 mg/kg.

Turning to `CN1CCC(=C2c3ccccc3CC(=O)c3sccc32)CC1` [D, ketotifen], the “% Lethality” value in the assay with PAF-induced lethality (compound 1.4 mg/kg i.p. 30 minutes before i.v. PAF (200 µg/kg)) is on record as 100%. Besides, the “effect on PAF-induced mortality” value in the assay with PAF-induced lethality was “Neither chlorpheniramine, clemastine nor ketotifen affected PAF-induced mortality”. Also, the “% Survival” value in assay [1] (D 0.1 mg/kg i.p. 30 minutes before ovalbumin challenge, pooled data) is recorded as 40%. In assay [1], the “protection of sensitized animals from death” value was “significant protection” and the “protection against allergic death (anaphylactic shock) / ovalbumin-induced lethality” value is recorded as “only partial protection”.

For the compound `COc1cc([C@H]2CC[C@H](c3cc(OC)c(OC)c(OC)c3)O2)cc(OC)c1OC` (relative stereo) [A, trans-2,5-bis(3,4,5-trimethoxyphenyl)tetrahydrofuran], the ED50 with PAF-induced bronchospasm (iv, read-out: ED₅₀'s (i.v.)) worked out at 0.4 mg/kg; with PAF-induced lethality, 20 mg/kg. In addition, the “% Lethality” value in the assay on PAF-induced lethality (setting [2]) came to 84%; in the assay with PAF-induced lethality (setting [3]), 72%; in the assay with PAF-induced lethality (compound 25 mg/kg i.p. 30 minutes before i.v. PAF (200 µg/kg)) it was 25%; in the assay with PAF-induced lethality (compound 50 mg/kg i.p. 30 minutes before i.v. PAF (200 µg/kg)) it was 16%. Besides, the “% Survival” value in assay [1] (A 50 mg/kg i.p. 30 minutes before ovalbumin challenge, death recorded 1 hour after, pooled data from five experiments) came to 0%. Moreover, the “protecting sensitized animals from death” value in assay [1] is on record as “totally ineffective”.
